The subject of data set [1] is RNA editing of APOBEC3D. The data set can be described thus: RESSqPCR RNA editing ratio of APOBEC3D in CD34+ cord blood cells co-transduced with lenti-JAK2 and lenti-BCR-ABL. The note with it: JAK2/BCR-ABL1 transduced progenitors, two weeks SL/M2 stromal co-culture; 8-Aza 10-25 nM, SAR302503 100 nM. In kind it is cell-based, human. A general note: Quantitative PCR measures a nucleic acid by following its amplification.

The test system of data set [2] is LIN28B. The data set can be described thus: LIN28B expression in CD34+ cord blood cells co-transduced with lenti-JAK2 and lenti-BCR-ABL. The class given is cell-based, human. The note with it: JAK2/BCR-ABL1 transduced progenitors, two weeks SL/M2 stromal co-culture; 8-Aza 10-25 nM, SAR302503 100 nM.
Data set [3] has as its target T1, ADAR1 (Homo sapiens, UniProt P55265).
T1 construct: Full-length human adenosine deaminase, RNA-specific (ADAR1), transcript variant 1; T2A-GFP cassette of the vector pCDH-EF1-T2A-GFP (self-cleaving 2A; any remnant on ADAR1 not described); expressed in transfected cells; host or cells: K562 leukemia cells, lentiviral transduction (pCDH backbone)
T1 sequence (P55265 1-1226): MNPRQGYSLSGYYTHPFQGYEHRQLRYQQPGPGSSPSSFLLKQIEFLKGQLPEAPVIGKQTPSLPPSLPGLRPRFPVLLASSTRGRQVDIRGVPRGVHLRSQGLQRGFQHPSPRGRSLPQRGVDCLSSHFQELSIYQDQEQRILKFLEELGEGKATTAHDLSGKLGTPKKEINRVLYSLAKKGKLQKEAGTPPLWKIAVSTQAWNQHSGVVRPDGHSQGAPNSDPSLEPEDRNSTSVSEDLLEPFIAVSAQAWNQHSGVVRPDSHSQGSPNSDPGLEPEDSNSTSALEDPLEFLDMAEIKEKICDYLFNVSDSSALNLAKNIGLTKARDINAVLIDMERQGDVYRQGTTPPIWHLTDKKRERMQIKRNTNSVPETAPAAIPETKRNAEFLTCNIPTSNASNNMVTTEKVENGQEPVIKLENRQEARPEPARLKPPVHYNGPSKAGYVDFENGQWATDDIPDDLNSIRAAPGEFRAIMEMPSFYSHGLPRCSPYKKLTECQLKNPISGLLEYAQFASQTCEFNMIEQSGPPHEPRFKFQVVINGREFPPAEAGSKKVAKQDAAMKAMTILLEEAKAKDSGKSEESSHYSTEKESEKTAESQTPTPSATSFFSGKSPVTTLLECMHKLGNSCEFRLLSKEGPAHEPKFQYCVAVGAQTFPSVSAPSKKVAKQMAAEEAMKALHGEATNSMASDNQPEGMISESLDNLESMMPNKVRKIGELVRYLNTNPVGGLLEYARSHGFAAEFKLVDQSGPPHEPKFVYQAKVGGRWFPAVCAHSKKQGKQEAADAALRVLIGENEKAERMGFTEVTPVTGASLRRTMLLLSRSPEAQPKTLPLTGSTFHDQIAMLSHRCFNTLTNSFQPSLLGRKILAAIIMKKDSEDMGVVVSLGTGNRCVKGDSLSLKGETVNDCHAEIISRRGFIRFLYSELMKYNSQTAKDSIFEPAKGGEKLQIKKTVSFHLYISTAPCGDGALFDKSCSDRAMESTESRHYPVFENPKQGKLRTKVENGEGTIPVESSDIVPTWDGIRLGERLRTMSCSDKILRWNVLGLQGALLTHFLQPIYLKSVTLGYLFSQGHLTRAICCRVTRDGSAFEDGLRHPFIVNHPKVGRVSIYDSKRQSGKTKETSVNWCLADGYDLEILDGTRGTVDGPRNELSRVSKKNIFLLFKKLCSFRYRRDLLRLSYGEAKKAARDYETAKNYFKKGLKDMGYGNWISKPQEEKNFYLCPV
The data set can be described thus: RESSqPCR RNA editing ratio of APOBEC3D in K562 cells transduced with ADAR1 WT or ADAR1 E912A mutant. In kind it is cell-based. The note with it: K562 leukemic cell line, lentiviral ADAR1 WT or ADAR1 E912A. The source says:
FIG. 5b graphically illustrates data of a RNA editing ratio of APOBEC3D by RESSqPCR in K562 leukemia cells transduced with ADAR1 WT and ADAR1E912A mutant following 8-aza treatment (n=3). The values are normalized to the editing ratio observed in pCDH control cells.
As previously described (Yildirim et al., 2013), for each RNA editing site, two sets of primers were used: one pair detecting the WT transcript (an “A” base), and one pair detecting the edited transcript containing a “G” base representing inosine substitution. The forward (FW) outer and reverse (REV) outer primers flank the editing site and can be used for Sanger sequencing validation of each editing site, and also as a qRTPCR positive control to ensure that the editing region is detectable in cDNA. The 3′ ends of the FW inner and REV inner primers match either the WT A or edited G nucleotide, and an additional mismatch was incorporated two nucleotides upstream of the 3′ primer end to enhance allelic discrimination, as previously described for quantitative detection of transcripts harboring single nucleotide genomic mutations. RESSqPCR was performed as recently described (Yildirim et al., 2013) using highly validated RNA editing site specific primers for APOBEC3D. […] Relative RNA editing rates (Relative edit/WT RNA) were calculated using the following calculation: 2^-(Ct Edit-Ct WT).

Data set [4] has as its system BCR-ABL and JAK2 signaling. The data set can be described thus: qRT-PCR of BCR-ABL and JAK2 mRNA and p-CRKL, p-STAT5a Western blot in K562 cells. The class given is cell-based, human. Particulars: 8-aza at increasing concentrations. The source says: FIG. 14(a) graphically illustrates a RT-qPCR analysis of BCR-ABL and JAK2 mRNA in K562 cells transduced with pCDH vector control, lenti-ADAR1 WT, and lenti-ADAR1 mutant treated with 8-aza at increasing concentrations (n=3). FIG. 14(b) illustrates a Quantification of p-STAT5, p-CRKL, and β-actin protein expression in K562 cells transduced with pCDH vector control, lenti-ADAR1 WT, and lenti-ADAR1 mutant treated with 8-aza at increasing concentrations (n=3).

Data set [5] deals with ADAR1 isoforms (p150). The data set can be described thus: qRT-PCR of ADAR1 expression in CD34+ cord blood cells co-transduced with lenti-JAK2 and lenti-BCR-ABL on SL/M2 stromal cultures. Particulars: for ADAR1 expression: JAK2/BCR-ABL1 transduced progenitors, two weeks SL/M2 stromal co-culture, 8-Aza 10-25 nM, SAR302503 100 nM.
Data set [6] relates to normal CD34+ hematopoietic progenitors. The data set can be described thus: Secondary colony replating of normal CD34+ progenitors after SL/M2 stromal co-culture. The note with it: SL/M2 stromal co-cultures; 8-Aza 10-25 nM, SAR302503 100 nM. The class given is cell-based, human. As for the experimental part:
FIG. 5h graphically illustrates data of a percentage of secondary colonies formed after replating primary colonies from normal bone marrow or BC CD34. cells treated with different dose of 8-aza (n=3).
FIG. 5i graphically illustrates data of a percentage of secondary colonies formed after replating primary colonies from normal bone marrow or BC CML following treatment.
H5100™ media (StemCell Technologies) along with different treatment. After 2 week of culture human cells were plated, in triplicate, in Methocult™ media (StemCell Technologies) for colony-forming and replating assays.
Following lentiviral transduction or in vitro culture with SL/M2 stroma, human cells were harvested, counted by trypan blue exclusion and 100-200 cells were plated per well of a 12-well plate in Methocultmedia. After 2 weeks, total colonies were counted and replated for secondary colony-formation assay.

Data set [7] has as its system let-7 miRNA. The data set can be described thus: miRNA PCR of let-7 family in CD34+ cord blood cells co-transduced with lenti-JAK2 and lenti-BCR-ABL on SL/M2 stromal cultures. In kind it is cell-based, human. On the procedure: Human specific RPL27 primers were used as housekeeping control. MicroRNA extraction was performed using the RNeasy Micro Kit (Qiagen) according to the manufacturer's instructions. Then 30 ng of cDNA was prepared in a reverse transcription reaction using miScript RTII™ kit (Qiagen) and served as a template for the quantification of the expression of mature miRNA of interest. Also, qRT-PCR was performed using miRNA human-specific primers and SYBR Green Kit (Qiagen). MiScript™ primers, RNU6_2 (Qiagen), were used as housekeeping control.

The subject of data set [8] is ADAR-mediated A-to-I editing activity in K562 leukemia cells co-transduced with lenti-ADAR1 and lenti-JAK2. The data set can be described thus: Dual luciferase reporter assay of ADAR-specific RNA editing activity in K562 cells. In kind it is cell-based, human. Particulars: SAR302503 100 nM or 300 nM, 3 hrs. For orientation: In a reporter assay the amount or activity of a reporter protein is the signal.

Where [9] appears, read: JAK2/BCR-ABL1 transduced progenitors, two weeks SL/M2 stromal co-culture, 8-Aza 10-25 nM, SAR302503 100 nM.
The mark [10] stands for this setting: JAK2/BCR-ABL1 transduced normal CD34+ progenitors, SAR302503 100 nM and 600 nM on SL/M2 stromal cultures.

`Nc1ncnc2c1nnn2[C@@H]1O[C@H](CO)[C@@H](O)[C@H]1O` [8-aza, 8-azaadenosine]: in data set [1], the “RNA editing activity (APOBEC3D RESSqPCR)” value is given as “reduction”. Besides, the LIN28B expression entry in data set [2] is “reduction”. Besides, the “ADAR1's adenosine-to-inosine (A-to-I) editing activity” value in data set [3] was “reduced ADAR1's adenosine-to-inosine (A-to-I) editing activity”. Moreover, the “effect on BCR-ABL and JAK2 signaling (qRT-PCR, p-CRKL and p-STAT5a Western blot)” value in data set [4] was “no effect on BCR-ABL and JAK2 signaling”. In addition, the ADAR1 expression result in data set [5] is reported as “reduction in ADAR1 expression”. In data set [6], the “self renewal capacity of normal CD34+ hematopoietic progenitors” value is recorded as “not significantly impaired”. For the same compound, the “let-7 miRNA biogenesis” value in data set [7] (setting [9]) is “restored let-7 miRNA biogenesis”.

In the case of `Cc1cnc(Nc2ccc(OCCN3CCCC3)cc2)nc1Nc1cccc(S(=O)(=O)NC(C)(C)C)c1` [SAR302503, N-tert-Butyl-3-{5-methyl-2-[4-(2-pyrrolidin-1-yl-ethoxy)-phenylamino]-pyrimidin-4-ylamino}-benzenesulfonamide], in data set [1], the “RNA editing activity (APOBEC3D RESSqPCR)” value is listed as “reduction”. In addition, the LIN28B expression result in data set [2] is on record as “reduction”. For the same compound, the “RNA editing activity (luciferase reporter)” value in data set [8] is “reversed RNA editing activity in a dose dependent manner”. Moreover, the “ADAR1 p150 isoform expression” value in data set [5] (setting [10]) is given as “reduced ADAR1 p150 isoform expression”. Moreover, the ADAR1 expression entry in data set [5] is on record as “reduction in ADAR1 expression”. The “let-7 miRNA biogenesis” value was “restored let-7 miRNA biogenesis in a dose-dependent manner” in data set [7] (setting [10]) and “restored let-7 miRNA biogenesis” in data set [7] (setting [9]).

The record behind these values is patent US20240165145A1, “COMPOSITIONS AND METHODS FOR TREATING CANCER AND BIOMARKERS TO DETECT CANCER STEM CELL REPROGRAMMING AND PROGRESSION” (The Regents of the University of California, priority 2016, published 2024).
